Where only a bound is given, the exact number is not on record here.

Experimental findings from PMC12024457 (Antioxidants, 2025) are described below.

One series relates to human LX2 stellate cells. As to the kind of experiment: MTT cell viability, LX2. It is filed as cell-based. Conditions: LX2, 48 h, up to 30 µM. As for the experimental part:
(§1) MDA-MB-231 and LX2 cells were seeded in triplicate in 96-well plates at a density of 20,000 cells per well in 100 μL of medium and allowed to attach for 24 h at 37 °C and 5% CO2. Compounds were added at a final DMSO concentration of 0.5%, and cells were incubated for an additional 48 h. The pan-kinase inhibitor staurosporine (1 µM, Merck) was used as a reference compound, and the concentration was selected to efficiently induce cell death (≥90%). […]. The concentrations of Q-VD-OPh and ferrostatin-1 were chosen based on commonly applied ranges reported in the literature and were further optimized in preliminary experiments using the apoptosis inducers etoposide and staurosporine, as well as the ferroptosis inducer RSL3, to ensure suppression of apoptosis and ferroptosis, respectively. […] For the MTT assay, 20 µL of 3-(4,5-dimethylthiazol-2-yl)-2,5-diphenyltetrazolium bromide (MTT, 5 mg/mL in PBS pH = 7.4, sterile-filtered, Merck) solution was added to each well, and the cells were incubated for 1.5 h. […] Absorbance was measured at 570 nm using a SpectraMax iD3 plate reader (Molecular Devices). Absorbance values from ethanol-treated cells were used for background subtraction, and cell viability was expressed as percentage relative to the vehicle control (DMSO). […]

In series [1] the test system is human triple-negative MDA-MB-231 breast cancer cells. As to the kind of experiment: MTT cell viability, MDA-MB-231. The note with it: MDA-MB-231, 48 h, up to 30 µM. It is filed as cell-based. As for the experimental part: as §1
Series [2] has as its system Human MDA-MB-231 breast cancer cells. The series is classed as cell-based. As for the experimental part:
MDA-MB-231 and LX2 cells were seeded in triplicate in 96-well plates at a density of 20,000 cells per well in 100 μL of medium and allowed to attach for 24 h at 37 °C and 5% CO2. Compounds were added at a final DMSO concentration of 0.5%, and cells were incubated for an additional 48 h. The pan-kinase inhibitor staurosporine (1 µM, Merck) was used as a reference compound, and the concentration was selected to efficiently induce cell death (≥90%). […]. The concentrations of Q-VD-OPh and ferrostatin-1 were chosen based on commonly applied ranges reported in the literature and were further optimized in preliminary experiments using the apoptosis inducers etoposide and staurosporine, as well as the ferroptosis inducer RSL3, to ensure suppression of apoptosis and ferroptosis, respectively. […] Absorbance was measured at 570 nm using a SpectraMax iD3 plate reader (Molecular Devices). Absorbance values from ethanol-treated cells were used for background subtraction, and cell viability was expressed as percentage relative to the vehicle control (DMSO). […]
Cells were treated with vehicle (0.5% DMSO) or compounds at different concentrations (0.3, 1, 3, 10, and 30 μM) for 48 h. Cell viability measured by MTT assay. […]

For a further series, the system named is MDA-MB-231 cells. Briefly: Inhibition of RSL3-induced ferroptotic cell death (MTT). It is filed as cell-based, human. Conditions: at either 3 or 30 μM, RSL3 0.3 µM. As for the experimental part:
The anti-ferroptotic properties of the compounds were evaluated in MDA-MB-231 cells. Cells were seeded in 96-well plates at a density of 20,000 cells per well in 100 μL of medium. After 24 h at 37 °C and 5% CO2, cells were treated with the vehicle (0.5% DMSO) or the compounds at 3 µM and 30 µM alone or in combination with RSL3 (0.3 μM, Cayman Chemicals) for an additional 48 h. The cellular dehydrogenase activity was assessed by the reduction of MTT, as described in Section 2.4.
Radar plot illustrating cell viability measured by MTT assay. […] Data are presented as the mean of n = 3 independent experiments. * p < 0.05, ** p < 0.01; paired Student’s t-test.

Series [3] can be described thus: DPPH radical scavenging assay. Conditions: read-out: DPPH (EC50).
The conditions of series [4]: TE: Trolox equivalent.

For `COc1cc(/C=C/C(=O)CC(=O)/C=C/c2ccc(O)c(OC)c2)ccc1O` [Curcumin], the half-maximal effective concentration (EC50) with human LX2 stellate cells stood at 23 µM; in series [1], 20 µM. The “effect of ferroptosis inhibitor Fer-1 on compound-induced cell death” value in series [2] (Fer-1 10 μM, 48 h) was “partially attenuated by Fer-1”. Further, the “effect of apoptosis inhibitor Q-VD on compound-induced cell death” value in series [2] (human) is on record as “tendentially by Q-VD”. Also, the “cytoprotective effects against RSL3-induced ferroptosis” value in the series on MDA-MB-231 cells is listed as “did not exhibit cytoprotective effects”.
`OCCc1ccc(O)c(O)c1` [HTYR, 3-hydroxy-tyrosol]: in series [3], the concentration giving a half-maximal response (EC50) came out at 12.3 ± 1 µM. Further, the “ORAC (TE)” value in series [4] is on record as 7.40 ± 0.17 TE.
Regarding `COc1ccc2[nH]cc(CCO)c2c1` [MEL, 5-methoxytryptophol], the 50% effective concentration (EC50) in series [3] was greater than 1000 µM. Further, the “ORAC (TE)” value in series [4] came to 2.23 ± 0.12 TE.
As to `COc1cc(CCO)ccc1O` [MTYR, 3-methoxy-tyrosol], the EC50 in series [3] turned out to be 31 ± 2.6 µM. Moreover, the “ORAC (TE)” value in series [4] stood at 2.90 ± 0.21 TE.
The matching figures for `OCCc1ccc(O)cc1` [TYR, tyrosol]: greater than 1000 µM and 2.18 ± 0.12 TE.
